In US20240336643A1, “BIFUNCTIONAL COMPOUNDS THAT DEGRADE ALK AND USES THEREOF” (DANA-FARBER CANCER INSTITUTE, INC., priority 2021, published 2024):
Read-outs that look alike come from different tables or passages of the source.

Legend:
[1] = biological target: BAF3 Cells with Variant 3 EML4-ALK^G1202R (Homo sapiens, UniProt Q9UM73, G1202R, cells depend on it); details: read-out: BAF3 Cells with Variant 3 EML4-ALK^G1202R (IC50)
Description: (§1) The 3-day viability assay was performed by seeding the cells at 750 cells per 50 μL volume of complete medium per well. Following the seeding of the cells, the plate was briefly spun down to let the cells settle at the bottom of the plate before treating with compounds at a dose range using d300e. Once the cells were treated, the cells were incubated at 37° C. with 5% CO2 for 72 hours. At the end of the treatment duration, the plate was brought to root temperature to equilibrate before adding 12.5 μL of the CellTiter-Glo® reagent per well. The plate was shaken using a plate shaken at 50 rpm for 5 minutes at room temperature and then incubated for 5 minutes in the dark before the plates were read using a luminescence based plate reader.
(§2) IC50 values were determined using a non-linear regression curve fit in GraphPad Prism (Version 9.1.0).

[2] = biological target: BAF3 Cells with Variant 3 EML4-ALK^WT (Homo sapiens, UniProt Q9UM73); details: read-out: BAF3 Cells with Variant 3 EML4-ALK^WT (IC50); 72 hours, CellTiter-Glo
Description: as §1, §2

FER in HCT116 cells = biological target: T1, FER in HCT116 cells (Homo sapiens, UniProt P16591); test: Western blotting for FER degradation; assay type: cell-based; details: various concentrations, 24 hours
T1 construct: endogenous in cells; host or cells: HCT116
Description: HCT116 cells were treated with compound 1 or a FER kinase inhibitor E260 (Elkis et al., Nat. Commun. 8:940 (2017)) at various concentrations for 24 hours, along with DMSO (not shown) and ethanol as controls (FIG. 2). 18 μg of protein was loaded in each lane and Western blotting was performed for FER, CRBN, and loading control ACTIN.

proteins in MOLT4 cells = test: Quantitative mass spectrometry proteomics, relative protein abundance; assay type: cell-based; details: 1 μM, 5 hours, cut-offs 2-fold change, p value 0.001
Description: Relative fold-change (FC) abundance of proteins in MOLT4 cells treated with compound 1 (1 μM) for 5 hours was determined using quantitative mass spectrometry proteomics (protocol was published previously: Donovan et al., Cell 183:1714-1731 (2020)). Dotted lines signify a 2-fold change in protein levels and a p value of 0.001. […] FER is a cytoplasmic tyrosine kinase and its kinase function […] for STAT3 phosphorylation in tumor cell transformation and growth, but siRNA knock down of FER leads to decreased phospho-STAT3 and reduced STAT3 activation and inhibition of tumor growth in vivo (Lennartsson et al., J. Biol. Chem. 288:15736-15744 (2013)). STAT3 activation plays a key role in several cancers, including colon cancer (Gargalionis et al., Biomedicines 9:1016 (2021)). Therefore, inhibition of STAT3 signaling through depletion of FER using a targeted protein degrader is useful in the treatment of such cancers.

Mouse oral PK study = assay type: in vivo, male C57BI/6 mice; details: for Vd: C57BI/6, mouse, iv, 2 mg/kg
Description: Standard oral PK studies were conducted using male C57BI/6 mice obtained from BioDuro Shanghai. […] Plasma concentrations of compound 1 reported at each of the 9 time points (5 min, 15 min, 30 min, 1 h, 2 h, 4 h, 6 h, 8 h and 24 h post dosing) are the average values from 3 test animals.

[3] = biological target: HiBiT G1202R Variant 1 EML4-ALK (Homo sapiens, UniProt Q9UM73, G1202R); assay type: cell-based; details: Ba/F3 cells, 0.0003-2 μM, 4 hours; for DC50: read-out: BAF3 Cellular Degradation - HiBiT G1202R Variant 1 EML4-ALK: DC50; for Dmax: BaF3, maximal level of degradation, read-out: BAF3 Cellular Degradation - HiBiT G1202R Variant 1 EML4-ALK: Dmax
[4] = male, C57BI/6, 10 mg/kg, PO, single dose, plasma
[5] = male, C57BI/6, IV, single 2 mg/kg, plasma

HiBiT G1202R Variant 1 EML4-ALK, sequence (Q9UM73 with tags, fused parts or gaps G1202R): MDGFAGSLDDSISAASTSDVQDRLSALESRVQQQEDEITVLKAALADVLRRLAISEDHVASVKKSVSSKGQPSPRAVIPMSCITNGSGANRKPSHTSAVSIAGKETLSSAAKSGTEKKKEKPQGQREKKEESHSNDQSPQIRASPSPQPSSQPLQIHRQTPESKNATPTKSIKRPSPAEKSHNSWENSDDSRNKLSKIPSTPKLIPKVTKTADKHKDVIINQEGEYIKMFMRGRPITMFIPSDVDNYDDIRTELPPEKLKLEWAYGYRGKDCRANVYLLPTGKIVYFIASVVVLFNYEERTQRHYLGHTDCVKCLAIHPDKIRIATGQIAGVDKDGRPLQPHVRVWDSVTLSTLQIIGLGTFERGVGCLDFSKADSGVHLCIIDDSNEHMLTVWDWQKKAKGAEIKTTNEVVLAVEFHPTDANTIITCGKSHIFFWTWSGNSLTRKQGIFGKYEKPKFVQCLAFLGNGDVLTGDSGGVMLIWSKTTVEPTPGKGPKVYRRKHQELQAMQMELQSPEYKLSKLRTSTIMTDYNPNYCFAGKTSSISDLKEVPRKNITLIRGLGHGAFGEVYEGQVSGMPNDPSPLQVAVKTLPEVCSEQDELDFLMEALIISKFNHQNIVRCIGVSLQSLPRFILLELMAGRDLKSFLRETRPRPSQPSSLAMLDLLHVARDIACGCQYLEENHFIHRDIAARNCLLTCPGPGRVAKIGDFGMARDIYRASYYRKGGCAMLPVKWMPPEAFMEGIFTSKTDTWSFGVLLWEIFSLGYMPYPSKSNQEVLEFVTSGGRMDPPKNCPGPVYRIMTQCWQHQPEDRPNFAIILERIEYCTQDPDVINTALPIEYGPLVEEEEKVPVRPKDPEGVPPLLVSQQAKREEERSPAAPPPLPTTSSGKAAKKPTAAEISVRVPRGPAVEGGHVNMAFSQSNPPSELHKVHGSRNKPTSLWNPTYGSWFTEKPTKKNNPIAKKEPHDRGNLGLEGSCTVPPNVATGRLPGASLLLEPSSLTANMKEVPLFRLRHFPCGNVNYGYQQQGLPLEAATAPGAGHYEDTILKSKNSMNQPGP
HiBiT G1202R Variant 1 EML4-ALK, sequence (Q96SW2 whole entry partner): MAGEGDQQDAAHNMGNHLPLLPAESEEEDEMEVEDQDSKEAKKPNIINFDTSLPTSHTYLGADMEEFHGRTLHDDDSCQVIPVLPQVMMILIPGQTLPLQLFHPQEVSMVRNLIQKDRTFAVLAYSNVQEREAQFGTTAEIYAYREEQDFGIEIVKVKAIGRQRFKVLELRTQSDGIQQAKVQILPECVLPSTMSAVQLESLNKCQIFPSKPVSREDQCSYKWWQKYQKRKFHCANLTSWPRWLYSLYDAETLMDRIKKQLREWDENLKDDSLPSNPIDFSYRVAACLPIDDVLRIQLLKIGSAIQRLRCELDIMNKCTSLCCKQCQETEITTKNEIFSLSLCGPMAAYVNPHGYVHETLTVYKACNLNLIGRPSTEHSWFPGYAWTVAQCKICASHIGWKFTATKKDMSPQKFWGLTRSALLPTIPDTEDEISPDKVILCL
HiBiT G1202R Variant 1 EML4-ALK, sequence (Q3U1J4 whole entry partner): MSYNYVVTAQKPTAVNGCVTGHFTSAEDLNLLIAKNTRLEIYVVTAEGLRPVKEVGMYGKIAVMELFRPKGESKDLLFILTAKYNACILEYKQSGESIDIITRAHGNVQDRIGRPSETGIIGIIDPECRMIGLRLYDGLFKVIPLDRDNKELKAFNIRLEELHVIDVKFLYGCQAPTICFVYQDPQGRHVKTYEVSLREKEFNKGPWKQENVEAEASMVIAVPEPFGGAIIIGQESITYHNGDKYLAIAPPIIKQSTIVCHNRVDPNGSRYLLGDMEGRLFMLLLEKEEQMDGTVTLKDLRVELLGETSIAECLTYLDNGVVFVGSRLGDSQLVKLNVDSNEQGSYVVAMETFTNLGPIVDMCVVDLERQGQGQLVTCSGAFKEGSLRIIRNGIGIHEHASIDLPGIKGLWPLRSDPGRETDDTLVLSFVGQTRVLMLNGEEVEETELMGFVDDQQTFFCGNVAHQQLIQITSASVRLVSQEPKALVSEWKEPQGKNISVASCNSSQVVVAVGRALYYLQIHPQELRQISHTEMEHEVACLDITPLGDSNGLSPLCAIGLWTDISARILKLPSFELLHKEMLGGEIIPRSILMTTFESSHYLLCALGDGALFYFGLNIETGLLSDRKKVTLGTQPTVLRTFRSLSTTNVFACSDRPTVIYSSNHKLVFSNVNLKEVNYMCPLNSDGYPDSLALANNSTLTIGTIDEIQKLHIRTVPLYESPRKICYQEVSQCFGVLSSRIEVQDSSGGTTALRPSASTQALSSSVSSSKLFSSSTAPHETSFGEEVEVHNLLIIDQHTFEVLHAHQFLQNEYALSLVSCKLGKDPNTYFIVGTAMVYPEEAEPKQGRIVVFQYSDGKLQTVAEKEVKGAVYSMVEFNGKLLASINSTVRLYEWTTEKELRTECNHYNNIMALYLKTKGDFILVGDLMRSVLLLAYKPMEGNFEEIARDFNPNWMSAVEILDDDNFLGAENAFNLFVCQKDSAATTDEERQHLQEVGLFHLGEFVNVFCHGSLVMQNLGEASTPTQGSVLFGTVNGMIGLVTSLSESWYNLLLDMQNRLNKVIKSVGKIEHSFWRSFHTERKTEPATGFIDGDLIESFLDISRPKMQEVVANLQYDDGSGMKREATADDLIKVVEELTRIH
BAF3 Cells with Variant 3 EML4-ALK^G1202R, sequence (Q9UM73 whole entry G1202R): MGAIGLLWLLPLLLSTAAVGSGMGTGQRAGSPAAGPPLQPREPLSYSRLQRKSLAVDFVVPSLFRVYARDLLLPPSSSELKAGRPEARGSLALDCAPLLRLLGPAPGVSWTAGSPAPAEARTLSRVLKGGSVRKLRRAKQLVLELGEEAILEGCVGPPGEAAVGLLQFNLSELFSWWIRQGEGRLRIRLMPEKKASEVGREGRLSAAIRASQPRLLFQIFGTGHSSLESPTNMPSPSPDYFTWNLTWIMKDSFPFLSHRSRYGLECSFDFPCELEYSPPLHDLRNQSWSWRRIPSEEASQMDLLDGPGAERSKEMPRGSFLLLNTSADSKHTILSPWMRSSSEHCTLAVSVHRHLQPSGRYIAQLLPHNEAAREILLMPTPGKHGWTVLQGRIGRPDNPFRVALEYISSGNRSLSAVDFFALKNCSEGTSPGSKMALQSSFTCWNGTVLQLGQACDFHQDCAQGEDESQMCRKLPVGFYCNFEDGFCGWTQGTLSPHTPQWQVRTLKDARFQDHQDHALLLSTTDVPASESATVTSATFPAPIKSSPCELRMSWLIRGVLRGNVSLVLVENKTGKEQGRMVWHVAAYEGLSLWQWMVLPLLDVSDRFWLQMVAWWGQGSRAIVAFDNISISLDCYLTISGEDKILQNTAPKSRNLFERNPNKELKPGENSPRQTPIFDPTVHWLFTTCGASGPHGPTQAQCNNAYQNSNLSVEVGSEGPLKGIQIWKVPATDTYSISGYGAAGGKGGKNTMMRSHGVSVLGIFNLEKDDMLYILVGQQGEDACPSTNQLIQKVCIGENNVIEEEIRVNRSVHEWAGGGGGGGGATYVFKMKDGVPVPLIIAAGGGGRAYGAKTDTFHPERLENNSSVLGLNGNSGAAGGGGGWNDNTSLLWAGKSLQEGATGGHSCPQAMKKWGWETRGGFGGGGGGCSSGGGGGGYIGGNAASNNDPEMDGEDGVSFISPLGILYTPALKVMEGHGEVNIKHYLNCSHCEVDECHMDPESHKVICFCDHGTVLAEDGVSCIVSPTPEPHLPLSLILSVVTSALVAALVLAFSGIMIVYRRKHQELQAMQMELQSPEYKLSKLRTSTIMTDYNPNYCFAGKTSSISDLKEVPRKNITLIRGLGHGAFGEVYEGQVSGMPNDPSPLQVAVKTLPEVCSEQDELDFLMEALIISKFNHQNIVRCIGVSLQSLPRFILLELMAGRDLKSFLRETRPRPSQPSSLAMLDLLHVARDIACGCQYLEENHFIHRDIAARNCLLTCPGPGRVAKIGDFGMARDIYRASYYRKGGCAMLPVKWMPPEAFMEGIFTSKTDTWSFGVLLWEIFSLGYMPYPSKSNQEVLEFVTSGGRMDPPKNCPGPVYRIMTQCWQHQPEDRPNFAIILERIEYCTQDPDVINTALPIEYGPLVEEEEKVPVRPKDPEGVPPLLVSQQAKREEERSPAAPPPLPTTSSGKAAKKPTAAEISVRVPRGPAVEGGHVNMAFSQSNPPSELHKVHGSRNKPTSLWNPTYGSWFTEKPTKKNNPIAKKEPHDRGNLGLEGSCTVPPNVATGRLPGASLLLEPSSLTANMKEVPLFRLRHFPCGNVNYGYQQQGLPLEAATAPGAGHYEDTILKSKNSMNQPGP
BAF3 Cells with Variant 3 EML4-ALK^WT, sequence (Q9UM73 whole entry, change not shown): as the sequence (Q9UM73 whole entry G1202R) above, with R1202G counted along it
T1 sequence (P16591 whole entry): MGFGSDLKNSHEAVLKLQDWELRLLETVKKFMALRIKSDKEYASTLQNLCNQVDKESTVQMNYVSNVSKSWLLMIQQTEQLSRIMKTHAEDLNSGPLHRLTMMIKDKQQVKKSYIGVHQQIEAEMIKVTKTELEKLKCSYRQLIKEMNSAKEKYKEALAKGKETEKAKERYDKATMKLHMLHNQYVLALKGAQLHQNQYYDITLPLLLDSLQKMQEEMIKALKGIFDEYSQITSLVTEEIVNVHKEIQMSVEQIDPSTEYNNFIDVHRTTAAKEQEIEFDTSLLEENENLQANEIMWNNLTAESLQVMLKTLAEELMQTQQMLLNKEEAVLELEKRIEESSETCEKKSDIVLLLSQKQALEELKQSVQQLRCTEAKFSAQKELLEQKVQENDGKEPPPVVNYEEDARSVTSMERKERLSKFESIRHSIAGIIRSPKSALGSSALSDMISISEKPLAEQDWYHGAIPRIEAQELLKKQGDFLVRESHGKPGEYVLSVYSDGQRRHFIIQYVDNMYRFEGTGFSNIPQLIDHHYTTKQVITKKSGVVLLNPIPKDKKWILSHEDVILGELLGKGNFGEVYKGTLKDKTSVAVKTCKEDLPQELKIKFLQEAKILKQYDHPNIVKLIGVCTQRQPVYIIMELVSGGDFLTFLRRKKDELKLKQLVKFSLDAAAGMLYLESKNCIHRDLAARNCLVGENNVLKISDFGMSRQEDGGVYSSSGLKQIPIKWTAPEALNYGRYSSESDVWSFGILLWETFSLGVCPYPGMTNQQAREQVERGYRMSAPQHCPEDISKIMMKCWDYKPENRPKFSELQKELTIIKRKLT

For `COc1cc(N2CCC(N3CCN(C)CC3)CC2)ccc1Nc1ncc(Cl)c(Nc2ccccc2P(C)(C)=O)n1` [Brigatinib], the GI50 ([1]; baf3 cells with variant 3 eml4-alk^g1202r) was 183 nM.
`Cc1cc(Nc2ncc(Cl)c(Nc3ccccc3S(=O)(=O)C(C)C)n2)c(OC(C)C)cc1C1CCNCC1` [Ceritinib] gave a GI50 [2] of 85 nM and a GI50 ([1]; 72 hours, CellTiter-Glo) of 357 nM.
In the case of `COc1cc(C2CCN(CC3CN(c4ccc5c(c4)C(=O)N(C4CCC(=O)NC4=O)C5=O)C3)CC2)c(C)cc1Nc1ncc(Cl)c(Nc2ccccc2S(=O)(=O)C(C)C)n1` (stereo not drawn) [Compound 1, 5-{3-[(4-{4-[(5-chloro-4-{[2-(propane-2-sulfonyl)phenyl]amino}pyrimidin-2-yl)amino]-5-methoxy-2-methylphenyl}piperidin-1-yl)methyl]azetidin-1-yl}-2-(2,6-dioxopiperidin-3-yl)-2,3-dihydro-1H-isoindole-1,3-dione], the “Downregulation of FER (Western blot)” value (FER in HCT116 cells) is reported as “significantly downregulated FER”, the “Relative fold-change abundance of proteins (downregulated proteins)” value (proteins in MOLT4 cells) is reported as “downregulated PLK4, CAMK1D, FAK2, RSK1, ACK1 and FER” and the AUCExtr (Mouse oral PK study; IV, single 2 mg/kg, plasma) is reported as 1.65%. The F (Mouse oral PK study; PO versus IV) was 28.0%, the AUCExtr (Mouse oral PK study; PO, single dose, plasma) was 5.08% and the AUCInf/D (Mouse oral PK study; PO, single dose, plasma) was 0.605 hr*kg*nM/nmol. The “In vivo metabolic stability, plasma exposure and clearance (in words)” value (Mouse oral PK study; conclusion from Table 3) was “good in vivo metabolic stability, plasma exposure, and slow clearance rate”, the AUC(0-inf) (Mouse oral PK study; [4]) was 7.08 µM·h and the AUC(0-t) (Mouse oral PK study; [4]) was 6.73 µM·h. For the same compound, the Cmax (Mouse oral PK study; [4]) was 658 nM, the MRT inf (Mouse oral PK study; [4]) was 8.51 h and the Tmax (Mouse oral PK study; [4]) was 1.67 h. The half-life (Mouse oral PK study; [4]) was 322 min, the AUC(0-inf) (Mouse oral PK study; [5]) was 5.05 µM·h and the AUC(0-t) (Mouse oral PK study; [5]) was 4.97 µM·h. It also gave a C0 (Mouse oral PK study; [5]) of 2340 nM, an MRT inf (Mouse oral PK study; [5]) of 4.95 h and a clearance (Mouse oral PK study; [5]) of 7.73 mL/min/kg. For the same compound, the half-life (Mouse oral PK study; [5]) was 265 min, the Vd (Mouse oral PK study; male, plasma, IV, single 2 mg/kg, plasma, read-out: Vss) was 2.29 L/kg and the Vd (Mouse oral PK study; male, plasma, IV, single 2 mg/kg, plasma, read-out: Vz) was 2.95 L/kg.
In the case of `COc1cc(C2CCN(CCC3CN(c4ccc5c(c4)C(=O)N(C4CCC(=O)NC4=O)C5=O)C3)CC2)c(C)cc1Nc1ncc(Cl)c(Nc2ccccc2S(=O)(=O)C(C)C)n1` (stereo not drawn) [Compound 2], the DC50 [3] is reported as 10 nM and the Dmax [3] is reported as 76%.
For `COc1cc(C2CCN(C[C@H]3CCN(c4ccc5c(c4)C(=O)N(C4CCC(=O)NC4=O)C5=O)C3)CC2)c(C)cc1Nc1ncc(Cl)c(Nc2ccccc2S(=O)(=O)C(C)C)n1` (stereo partly drawn) [Compound 8, 5-[(3R)-3-[(4-{4-[(5-chloro-4-{[2-(propane-2-sulfonyl)phenyl]amino}pyrimidin-2-yl)amino]-5-methoxy-2-methylphenyl}piperidin-1-yl)methyl]pyrrolidin-1-yl]-2-(2,6-dioxopiperidin-3-yl)-2,3-dihydro-1H-isoindole-1,3-dione], the DC50 [3] was 124 nM.
For `COc1cc(C2CCN(C[C@@H]3CCN(c4ccc5c(c4)C(=O)N(C4CCC(=O)NC4=O)C5=O)C3)CC2)c(C)cc1Nc1ncc(Cl)c(Nc2ccccc2S(=O)(=O)C(C)C)n1` (stereo partly drawn) [Compound 9], the DC50 [3] was 41 nM and the Dmax [3] was 86%.
With `COc1cc(C2CCN(CC3CC4(C3)CN(c3ccc5c(c3)C(=O)N(C3CCC(=O)NC3=O)C5=O)C4)CC2)c(C)cc1Nc1ncc(Cl)c(Nc2ccccc2S(=O)(=O)C(C)C)n1` (stereo not drawn) [Compound 16, 5-(6-((4-(4-((5-chloro-4-((2-(isopropylsulfonyl)phenyl)amino)pyrimidin-2-yl)amino)-5-methoxy-2-methylphenyl)piperidin-1-yl)methyl)-2-azaspiro[3.3]heptan-2-yl)-2-(2,6-dioxopiperidin-3-yl)isoindoline-1,3-dione] the DC50 [3] was 79 nM.
With `CNC(=O)c1ccccc1Nc1nc(Nc2cc(C)c(C3CCN(CC4CCN(c5ccc6c(c5)C(=O)N(C5CCC(=O)NC5=O)C6=O)CC4)CC3)cc2OC)ncc1C(F)(F)F` (stereo not drawn) [Compound 17, 2-{[2-({4-[1-({1-[2-(2,6-dioxopiperidin-3-yl)-1,3-dioxo-2,3-dihydro-1H-isoindol-5-yl]piperidin-4-yl}methyl)piperidin-4-yl]-2-methoxy-5-methylphenyl}amino)-5-(trifluoromethyl)pyrimidin-4-yl]amino}-N-methylbenzamide] the DC50 [3] was 23 nM and the Dmax [3] was 77%.
`CNC(=O)c1ccccc1Nc1nc(Nc2cc(C)c(C3CCN(CC4CN(c5ccc6c(c5)C(=O)N(C5CCC(=O)NC5=O)C6=O)C4)CC3)cc2OC(C)C)ncc1C(F)(F)F` (stereo not drawn) [Compound 18, 2-{[2-({4-[1-({1-[2-(2,6-dioxopiperidin-3-yl)-1,3-dioxo-2,3-dihydro-1H-isoindol-5-yl]azetidin-3-yl}methyl)piperidin-4-yl]-5-methyl-2-(propan-2-yloxy)phenyl}amino)-5-(trifluoromethyl)pyrimidin-4-yl]amino}-N-methylbenzamide] gave a DC50 [3] of 71 nM and a Dmax [3] of 68%.
`CNC(=O)c1ccccc1Nc1nc(Nc2cc(C)c(C3CCN(CC4CCN(c5ccc6c(c5)C(=O)N(C5CCC(=O)NC5=O)C6=O)CC4)CC3)cc2OC(C)C)ncc1C(F)(F)F` (stereo not drawn) [Compound 19, 2-{[2-({4-[1-({1-[2-(2,6-dioxopiperidin-3-yl)-1,3-dioxo-2,3-dihydro-1H-isoindol-5-yl]piperidin-4-yl}methyl)piperidin-4-yl]-5-methyl-2-(propan-2-yloxy)phenyl}amino)-5-(trifluoromethyl)pyrimidin-4-yl]amino}-N-methylbenzamide] gave a DC50 [3] of 114 nM and a Dmax [3] of 55%.
`CCc1cc2c(cc1C#CCCCN1CCC(c3ccc4c(c3)CN(C3CCC(=O)NC3=O)C4=O)CC1)C(C)(C)c1[nH]c3cc(C#N)ccc3c1C2=O` (stereo not drawn) [Compound 22] gave a DC50 [3] of 6 nM and a Dmax [3] of 82%.
In the case of `CCc1cc2c(cc1N1CC(CN3CCC(c4ccc5c(c4)CN(C4CCC(=O)NC4=O)C5=O)CC3)C1)C(C)(C)c1[nH]c3cc(C#N)ccc3c1C2=O` (stereo not drawn) [Compound 23], the DC50 [3] is reported as 95 nM and the Dmax [3] is reported as 63%.
In the case of `COc1cc(CN2CCC(O)(c3ccc4c(c3)CN(C3CCC(=O)NC3=O)C4=O)CC2)c(C)cc1Nc1ncc(Cl)c(Nc2ccccc2S(=O)(=O)C(C)C)n1` (stereo not drawn) [Compound 26, 3-(5-(1-(4-((5-chloro-4-((2-(isopropylsulfonyl)phenyl)amino)pyrimidin-2-yl)amino)-5-methoxy-2-methylbenzyl)-4-hydroxypiperidin-4-yl)-1-oxoisoindolin-2-yl)piperidine-2,6-dione], the DC50 [3] is reported as 147 nM and the Dmax [3] is reported as 62%.
